“And” between values parts separate entries of the source, which are not always exact repeats. Equal entries are not always repeated. Where two headings read alike, the source gives them in different places.
Key:
LRAT = molecular target: T1, LRAT (Bos taurus, UniProt Q9BGL2); test: Assay for LRAT activity, bovine RPE microsomes (to identify B1); type: biochemical; conditions: for % Inhibition LRAT (10 jm): compound 10 jm
T1 construct: followed by approximately 15 μg of RPE microsomal protein; tissue W. L. Lawson Co., Lincoln, Nebr., USA (eyecups); host or cells: bovine retinal pigment epithelium microsomes
T1 sequence (Q9BGL2 1-230): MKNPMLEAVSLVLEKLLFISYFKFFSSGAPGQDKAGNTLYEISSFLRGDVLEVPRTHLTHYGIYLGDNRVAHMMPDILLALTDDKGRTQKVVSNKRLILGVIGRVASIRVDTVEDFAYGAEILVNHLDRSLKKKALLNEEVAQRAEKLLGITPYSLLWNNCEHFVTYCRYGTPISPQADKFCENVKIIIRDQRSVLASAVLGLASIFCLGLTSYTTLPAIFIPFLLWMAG
Experimental: (§1) 2.1 Isolation of RPE Microsomes (Modified from (1))
(§2) 50 frozen hemisected bovine eyecups, with the retina and aqueous humor removed were obtained from W. L. Lawson Co., Lincoln, Nebr., USA. The eyes were thawed overnight and the colored iridescent membrane was removed by peeling with forceps. Each eyecup was washed with 2× 0.5 mL cold buffer (0.1M PO4/1 mM DTT/0.25N sucrose, pH 7) by rubbing the darkly pigmented cells with an artist's brush or a rubber policeman. The cell suspension was added to the iridescent membranes and the suspension was stirred for several minutes in a beaker with a Teflon stir bar.
(§3) The cell homogenate was centrifuged for 30 min. at 20,000 g (Sorvaal model RC-5B centrifuge with an SS34 rotor in 2.5×10 cm tubes at 14,000 RPM). The resulting supernatant was subjected to further centrifugation for 60 min. at 150,000 g (Beckman model L80 Ultracentrifuge with an SW50.1 rotor in 13×51 mm tubes at 40,000 RPM). The resulting pellets were dispersed into ˜5 mL 0.1M PO4/5 mM DTT, pH 7 buffer using a Heat Systems Ultrasonics, Inc. model W185D Sonifier Cell Disrupter, and the resulting microsomal dispersion was aliquoted into small tubes and stored at −70° C. The protein concentrations of the microsomes were determined using the BioRad Dye binding assay, using BSA as a standard.
(§4) 2.3 Assay for ARAT and LRAT Activity (to Identify B1)
(§5) The procedure below was a modification of a method described in the literature (2). The following buffer was prepared and stored at 4° C.: 0.1M PO4 5 mM dithiothreitol, pH 7.0 (PO4/DTT). On the day of the assay, 2 mg BSA per mL of buffer was added to give a PO4/DTT/BSA working buffer. 1 mM retinol substrate was prepared in acetonitrile and stored in amber bottles under nitrogen gas at −20° C. Solutions of 4 mM Palmitoyl-CoA in working buffer (stored in aliquots) and 4 mM dilauroyl phosphatidyl choline in ethanol were prepared and stored at −20° C. Inhibitors were prepared as 10 mM stock solutions in H2O, ethanol, acetonitrile or DMSO. The quench solution was prepared using pure ethanol containing 50 μg/mL butylated hydroxytoluene (BHT), and a hexane solution containing 50 μg/mL BHT was used for the extractions.
(§6) The mixture was incubated for 5 min. at 37° C. to equilibrate the reaction temperature and then 5 μL 1 mM retinol was added. The vials were capped, vortexed for 5 seconds and incubated for 30-90 minutes at 37° C. The reaction was quenched by adding 0.5 mL ethanol/BHT. The retinoids were extracted by adding 3 mL hexane/BHT, vortexing the tubes for several seconds several times and centrifuging the tubes at low speed for 5 min. to quickly separate the layers. The upper hexane layer was removed into a clean vial, and the aqueous layer re-extracted with another 3 mL hexane/BHT, as described above. The hexane layers were combined, and the hexane evaporated by drying at 37° C. under a stream of nitrogen gas on a heated aluminum block. The dried residue was stored at −20° C. until HPLC analysis. The amount of retinyl palmitate and retinyl laurate was quantitated for ARAT and LRAT activity, respectively, by integration of the HPLC signal as described below.
(§7) Note that the incubation solution contains 40 μM acyl donor, 100 μM or less inhibitor, 10 uM retinol, approximately 30 μg/mL microsomal protein, and nearly 0.17 PO4/pH 7/5 mM DTT/2 mg/mL BSA. All steps subsequent to the addition of retinol were done in the dark or under amber lights.
(§8) Samples for retinoid quantitation by HPLC were prepared by dissolving the residue in each vial with 100 μL of methanol. […] Aliquots of 60 μL were injected immediately and analysed for retinoid content.
(§9) Two HPLC protocols were used for retinoid analysis.
(§10) These protocols were selected based on their ability to clearly resolve pertinent retinoid acids, alcohols, aldehydes, and/or esters for each assay and relative quickness of separation.

[1] = molecular target: transglutaminase (TGase I); test: Transglutaminase (Tgase) ELISA assay in cultured keratinocytes with retinol and boosters; type: cell-based, human; conditions: for IC20: IC20 (80% of control); for TG as % C Compd 1 / TG as % C, Compd 3 / TG as % C Compd 2: concentration one log below IC20; for TG as % C, Compd 3: Compound 3 alone; for % Inhibition Overall TG (—ROH/RE): % (booster+retinol inhibition/control inhibition) − % (ROH inhibition/control inhibition)
Experimental: For this reason, a transalutaminase (Tgase) assay was utilised.
Thus TGase I is a useful marker of epidermal keratinocyte differentiation with high TGase I levels indicating a more differentiated state. An ELISA based TGase I assay, using a TGase I antibody, was used to assess the state of differentiation of the cultured keratinocytes in the examples that follow.
Keratinocytes (cultured as described above) were plated in 96 well plates at a density of 4,000-5,000 cells per well in 200 μl media. After incubation for two to three days, or until cells are ˜50% confluent, the media was changed to media containing test compounds (five replicates per test). The cells were cultured for a further 96 hours after which time the media was aspirated and the plates stored at −70° C. Plates were removed from the freezer, and the cells were washed twice with 200 μl of 1×PBS. The cells were incubated for one hour at room temperature (R/T) with TBS/5% BSA (wash buffer, bovine serum albumin). Next the TGase primary antibody was added: 50 μl of monoclonal anti-Tgase I Ab B.C. diluted 1:2000 in wash buffer. The primary antibody was incubated for 2 hours at 37° C. and then rinsed 6× with wash buffer. Cells were then incubated with 50 μl of secondary antibody (Fab fragment, peroxidase conjugated anti-mouse IgG obtaining from Amersham) diluted 1:4,000 in wash buffer for two hours at 37° C., then rinsed three times with wash buffer. Following the rinse with washing buffer, the cells were rinsed 3× with PBS. For colourimetric development, the cells were incubated with 100 μl substrate solution (4 mg o-phenylenediamine and 3.3 μl 30% H2O2 in 10 ml 0.1M citrate buffer pH 5.0) for exactly five minutes, R/T, in darkness (under aluminum foil). The reaction was stopped by the addition of 50 μl 4 N H2SO4. […] Out of the five replicates, four were treated with both antibodies, the fifth one was use as a Tgase background control. Tgase levels were determined and expressed as percentage control.
A suspension of keratinocytes was prepared at a concentration of 3000 cells/200 μl/well in KGM medium (Used 3×10^5 cells/12 ml media in each microtitre plate)
200 μl of the keratinocyte suspension was transferred into each of the inner 60 wells only.
Each plate was incubated at 37° C. and 5% CO2 for 3 days or until cells are ˜50% confluent.
Stock solutions of the samples were prepared in DMSO.
The samples were diluted to desired concentration with the final assay concentration of DMSO being 0.1%.

ARAT = test: Assay for ARAT activity, bovine RPE microsomes (to identify B1); type: biochemical; conditions: for % Inhibition ARAT (100 jm): compound 100 jm; for % Inhibition ARAT (10 jm): compound 10 jm
Experimental: as §1, §2, §3, §4, §5, §6, §7, §8, §9, §10

[2] = B1 table, booster concentration which with 10^−7 M retinol inhibits TGase by 50%, same values in the 19th table (Molar), read-out: Overall TG (IC 50)
[3] = compound tested individually in the presence of 10^-7 M retinol
[4] = Tgase inhibition, compound tested individually in the presence of 10^-7 M retinol, read-out: IC50
[5] = in the presence of 10^-7M retinol
[6] = Compound 1 alone, in the presence of 10^-7M retinol

## C/C=C\C(=O)C1C(C)=CCCC1(C)C (stereo not drawn) [Alpha-Damascone]
LRAT
  % Inhibition LRAT (10 jm): 87% +/− 6
LRAT; compound 100 jm
  % Inhibition LRAT (100 jm): 98% +/− 1
[1]; [2]
  IC50: 335 µM
[1]; [3]
  IC20: 169 µM
[1]; [4]
  IC50: 335 µM
[1]; compound 1 alone, with retinol, listed as Alpha-demascone
  TG as % C Compd 1: 95 % C and 112 % C

## C/C=C/C(=O)C1=C(C)CCCC1(C)C [Beta-Damascone]
LRAT
  % Inhibition LRAT (10 jm): 52%
LRAT; compound 100 jm
  % Inhibition LRAT (100 jm): 92%

## CC(C)=CCCC(C)=CC=O [Citral]
ARAT
  % Inhibition ARAT (100 jm): 20%

## CC(C)=CCCC(C)CCO (stereo not drawn) [Citronellol]
ARAT
  % Inhibition ARAT (100 jm): 30%

## CC(/C=C/C=C(\C)C(=O)O)=C\C=C\C=C(C)\C=C\C=C(/C)C(=O)O [Crocetin]
ARAT
  % Inhibition ARAT (10 jm): 15%
  % Inhibition ARAT (100 jm): 34%
[1]; [5]
  TG as % C, Compd 3: 90 % C
[1]; [3]
  IC20: 25.2 µM

## CC(C)=CCCC(C)=CCCC(C)=CCO [Farnesol]
ARAT
  % Inhibition ARAT (10 jm): 23% +/− 18
  % Inhibition ARAT (100 jm): 53% +/− 18
[1]; [5]
  TG as % C, Compd 3: 118 % C
[1]; [3]
  IC20: 78.2 µM
[1]; compound 1 alone, with retinol
  TG as % C Compd 1: 98 % C

## CC12CCC(C1)C(C)(C)C2O (stereo not drawn) [Fenchyl Alcohol]
ARAT
  % Inhibition ARAT (100 jm): 12%

## CC(C)=CCC/C(C)=C/CO [Geraniol]
ARAT
  % Inhibition ARAT (10 jm): 13%
  % Inhibition ARAT (100 jm): 32%
[1]; [5]
  TG as % C, Compd 3: 105 % C
[1]; [3]
  IC20: 4720 µM

## CC(C)=CCC/C(C)=C/CC/C(C)=C/CC/C(C)=C/CO [Geranyl Geraniol]
ARAT
  % Inhibition ARAT (10 jm): 38% +/− 12
  % Inhibition ARAT (100 jm): 81% +/− 6

## CCCCCC(N)=O [Hexanoamide]
ARAT
  % Inhibition ARAT (100 jm): 20%

## CCCCCCCCCCCC(=O)N(C)CC(=O)O [Lauroyl Sarcosine]
ARAT
  % Inhibition ARAT (100 jm): 20%

## CCCCCCCCCCCC1=NCCN1CCO [Lauryl Hydroxyethylimidazoline]
[1]; B5 table, with 10^−7 M retinol, read-out: Overall TG (IC 50)
  IC50: 0.467 µM
[1]; [5]
  TG as % C, Compd 3: 52 % C
[1]; [3]
  IC20: 0.269 µM
[1]; [4]
  IC50: 0.467 µM
[1]; compound 2 alone, with retinol
  TG as % C Compd 2: 73 % C
[1]; compound 2 alone, with retinol, listed as Lauryl hydorxyimidazoline
  TG as % C Compd 2: 106 % C
[1]; compound 2 alone, with retinol, listed as Lauryl hydroxyethylimiazoline
  TG as % C Compd 2: 98 % C

## CCN(CC)CC(=O)Nc1c(C)cccc1C [Lidocaine, reference compound]
ARAT
  % Inhibition ARAT (100 jm): 12%

## C=CC(C)(O)CCC=C(C)C (stereo not drawn) [Linalool]
LRAT; compound 100 jm
  inhibition at 100 µM: 0%

## CCCCC/C=C\C/C=C\CCCCCCCC(=O)NCCCN(C)C [Linoleamidopropyl Dimethylamine]
ARAT
  % Inhibition ARAT (100 jm): 69% +/− 18

## CC/C=C\C/C=C\C/C=C\CCCCCCCC(=O)O [Linolenic Acid]
[1]; [5]
  TG as % C, Compd 3: 208 % C
[1]; [3]
  IC20: 121 µM

## CCCCC/C=C\C/C=C\CCCCCCCC(=O)N(CCO)CCO [Linoleoyl Diethanolamide]
LRAT
  % Inhibition LRAT (10 jm): 11% +/− 9
LRAT; compound 100 jm
  % Inhibition LRAT (100 jm): 51% +/− 15
[1]
  % Inhibition Overall TG (—ROH/RE): 59%

## CCCCC/C=C\C/C=C\CCCCCCCC(=O)NCCO [Linoleoyl Monoethanolamide (LAMEA)]
[1]; [5]
  TG as % C, Compd 3: 127 % C

## CCCCC/C=C\C/C=C\CCCCCCCC(=O)NCCO [Linoleoyl Monoethanolamide]
[1]; [2]
  IC50: 16.1 µM
[1]; [3]
  IC20: 14.8 µM
[1]; [4]
  IC50: 16.1 µM

## CC(C)(O)CCCC1=CCC(C=O)CC1 (stereo not drawn) [Lyral]
ARAT
  % Inhibition ARAT (100 jm): 76%
[1]; [6]
  TG as % C Compd 1: 97 % C
[1]; [3]
  IC20: 40 µM
[1]; compound 1 alone, with retinol
  TG as % C Compd 1: 120 % C

## CCCCC/C=C/C/C=C/CCCCCCCC(=O)NC(C)c1ccccc1 (stereo not drawn) [Melinamide, reference compound]
ARAT
  % Inhibition ARAT (100 jm): 64% +/− 15

## CCCCCCCCCCCCCC(=O)N(C)CC(=O)O [Myristoyl Sarcosine]
ARAT
  % Inhibition ARAT (100 jm): 41% +/− 14

## O=C1C[C@@H](c2ccc(O)cc2)Oc2cc(O)cc(O)c21 [Naringenin]
ARAT
  % Inhibition ARAT (100 jm): 33%
[1]; [5]
  TG as % C, Compd 3: 94 % C
[1]; compound 1 alone, with retinol
  TG as % C Compd 1: 95 % C

## CCCCCCCCCCCCCCCC(=O)NCCO [Palmitamide Monoethanolamide]
[1]; [5]
  TG as % C, Compd 3: 95 % C

## CC(=O)/C=C/C=C(\C)CCC=C(C)C [Pseudoionone]
LRAT; compound 100 jm
  % Inhibition LRAT (100 jm): 37%

## CCCC(O)CCC1C(C)CCCC1(C)C (stereo not drawn) [Timberol]
LRAT; compound 100 jm
  % Inhibition LRAT (100 jm): 33%

## CC(=O)c1cc2c(cc1C)C(C)(C)C(C)CC2(C)C (stereo not drawn) [Tonalid]
ARAT
  % Inhibition ARAT (100 jm): 50%

## CC(=O)c1cc2c(cc1C)C(C)(C)[C@H](C)[C@H]2C(C)C [Traseolide]
ARAT
  % Inhibition ARAT (100 jm): 41%

## C/C=C\C(=O)C1C(C)=CCCC1(C)C (stereo not drawn) [a-Damascone]
[1]; [5]
  TG as % C, Compd 3: 89 % C

## CC(=O)/C=C/C1C(C)=CCCC1(C)C (stereo not drawn) [a-Ionone]
[1]; [5]
  TG as % C, Compd 3: 88 % C

## CC1=C(/C=C/C(C)=C/C=C/C(C)=C/CO)C(C)(C)CCC1 [retinol, All-trans-retinol, reference compound]
[1]; 1 μM retinoid, day 2, keratinocytes 4000 cells/well
  inhibition of transglutaminase production (maximal): 55%

## Alpha-Ionone
[1]; [2]
  IC50: 927 µM
[1]; [3]
  IC20: 142 µM
[1]; [4]
  IC50: 927 µM
[1]; compound 1 alone, with retinol
  TG as % C Compd 1: 101 % C

## Castor Oil MEA
[1]; [2]
  IC50: 32.5 µM
[1]; [4]
  IC50: 32.5 µM
[1]; compound 1 alone, with retinol
  TG as % C Compd 1: 110 % C
[1]; compound 1 alone, with retinol, listed as Caster oil MEA
  TG as % C Compd 1: 96 % C

## Coco Trimethyl-ammonium Cl—
ARAT
  % Inhibition ARAT (100 jm): 27%

## Damascenone
LRAT
  % Inhibition LRAT (10 jm): 29%
LRAT; compound 100 jm
  % Inhibition LRAT (100 jm): 79%

## Delta-Damascone
LRAT
  % Inhibition LRAT (10 jm): 64%
LRAT; compound 100 jm
  % Inhibition LRAT (100 jm): 95%

## Dimethyl Imidazolidinone
[1]
  % Inhibition Overall TG (—ROH/RE): 22%
[1]; compound 1 alone, with retinol
  TG as % C Compd 1: 99 % C

## Dimethyl imidazoline
[1]; compound 2 alone, with retinol
  TG as % C Compd 2: 112 % C

## Dimethyl imidazolinone
[1]; Compound 2 alone, in the presence of 10^-7M retinol
  TG as % C Compd 2: 87 % C
[1]; [5]
  TG as % C, Compd 3: 87 % C

## Ethyl Saffranate
LRAT; compound 100 jm
  % Inhibition LRAT (100 jm): 49%

## Gamma-Methyl Ionone
LRAT; compound 100 jm
  % Inhibition LRAT (100 jm): 38%

## Hexanoyl Sphingosine
LRAT; compound 100 jm
  % Inhibition LRAT (100 jm): 37% +/− 9
[1]; [2]
  IC50: 99.9 µM
[1]; [6]
  TG as % C Compd 1: 104 % C
[1]; [3]
  IC20: 69.4 µM
[1]; [4]
  IC50: 99.9 µM
[1]; compound 1 alone, with retinol
  TG as % C Compd 1: 122 % C and 99.3 % C and 99 % C and 109 % C

## Oleyl Betaine
ARAT
  % Inhibition ARAT (100 jm): 47%
[1]; [2]
  IC50: 28 µM
[1]; [6]
  TG as % C Compd 1: 62 % C
[1]; [3]
  IC20: 10.8 µM
[1]; [4]
  IC50: 28 µM
[1]; compound 1 alone, with retinol, listed as Oleoyl beatine
  TG as % C Compd 1: 96 % C
[1]; compound 1 alone, with retinol, listed as Oleoyl betaine
  TG as % C Compd 1: 99.5 % C

## […]-Damascone
[1]; [5]
  TG as % C, Compd 3: 89 % C

## […]-Ionone
[1]; [6]
  TG as % C Compd 1: 68 % C
